Measured values taken from PubChem BioAssay AID248 (DTP/NCI, 2004).
Several values for one entry are separate records, joined by “and”; a condition that tells them apart may be missing. Identical values can stand only once. Toxic doses and inconclusive results are not listed. Rule as the data show it: active = T/C of 150% or more; inactive = T/C below 125%.

Test system: L1210 leukemia ip in BDF1 mice, survival T/C
Experiment: NCI In Vivo Anticancer Drug Screen. Data for tumor model L1210 Leukemia (intraperitoneal) in B6D2F1 (BDF1) mice
Conditions: higher = longer survival
How it was run: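 Tumor was transplanted into mice, which were then dosed with test compound or vehicle alone. Survival was recorded for each group, and the treated figure was expressed relative to the control figure.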

Measured: T/C

O=c1[nH]cc(F)c(=O)[nH]1
inactive: endpoint: mean survival time, dose: 0.06 mg/kg/injection, schedule: Q#A X Z (ip), vehicle: carboxymethylcellulose (CMC) 103 % of control | endpoint: mean survival time, dose: 0.12 mg/kg/injection, schedule: Q#A X Z (ip), vehicle: carboxymethylcellulose (CMC) 108 % of control | endpoint: mean survival time, dose: 0.25 mg/kg/injection, schedule: Q#A X Z (ip), vehicle: carboxymethylcellulose (CMC) 106 % of control | endpoint: mean survival time, dose: 0.5 mg/kg/injection, schedule: Q#A X Z (ip), vehicle: carboxymethylcellulose (CMC) 112 % of control | endpoint: mean survival time, dose: 0.63 mg/kg/injection, schedule: Q01DX015 (ip), vehicle: water 100 % of control | endpoint: mean survival time, dose: 0.75 mg/kg/injection, schedule: Q03DX006 (ip), vehicle: carboxymethylcellulose (CMC) 105 % of control | endpoint: mean survival time, dose: 1.0 mg/kg/injection, schedule: Q01DX009 (ip), vehicle: other 105 % of control | endpoint: mean survival time, dose: 1.4 mg/kg/injection, schedule: Q01DX Z (ip), vehicle: saline 109 % of control | endpoint: mean survival time, dose: 2.0 mg/kg/injection, schedule: Q01DX005 (iv), vehicle: carboxymethylcellulose (CMC) 108 % of control | endpoint: mean survival time, dose: 2.0 mg/kg/injection, schedule: Q01DX Z (im), vehicle: carboxymethylcellulose (CMC) 108 % of control | endpoint: mean survival time, dose: 2.0 mg/kg/injection, schedule: Q01DX Z (ip), vehicle: carboxymethylcellulose (CMC) 108 % of control | endpoint: mean survival time, dose: 2.5 mg/kg/injection, schedule: Q01DX015 (ip), vehicle: water 107 % of control | endpoint: mean survival time, dose: 4.0 mg/kg/injection, schedule: Q01DX005 (iv), vehicle: carboxymethylcellulose (CMC) 111 % of control | endpoint: mean survival time, dose: 4.8 mg/kg/injection, schedule: Q04DX002 (ip), vehicle: saline 93 % of control and 101 % of control | endpoint: mean survival time, dose: 5.0 mg/kg/injection, schedule: Q01DX006 (ip), vehicle: saline 110 % of control | endpoint: mean survival time, dose: 5.0 mg/kg/injection, schedule: Q01DX010 (ip), vehicle: saline 107 % of control | endpoint: mean survival time, dose: 8.0 mg/kg/injection, schedule: Q01DX005 (iv), vehicle: carboxymethylcellulose (CMC) 108 % of control | endpoint: mean survival time, dose: 8.4 mg/kg/injection, schedule: Q01DX009 (ip), vehicle: saline 102 % of control | endpoint: mean survival time, dose: 8.4 mg/kg/injection, schedule: Q01DX Z (ip), vehicle: saline 102 % of control | endpoint: mean survival time, dose: 9.5 mg/kg/injection, schedule: Q04DX002 (ip), vehicle: saline 101 % of control and 102 % of control | endpoint: mean survival time, dose: 10.0 mg/kg/injection, schedule: Q01DX009 (oral), vehicle: saline 111 % of control | endpoint: mean survival time, dose: 12.5 mg/kg/injection, schedule: Q04DX003 (ip), vehicle: saline 98 % of control | endpoint: mean survival time, dose: 13.3 mg/kg/injection, schedule: Q04DX003 (ip), vehicle: saline 110 % of control | endpoint: mean survival time, dose: 16.0 mg/kg/injection, schedule: Q#A X Z (ip), vehicle: carboxymethylcellulose (CMC) 108 % of control | endpoint: mean survival time, dose: 19.0 mg/kg/injection, schedule: Q04DX002 (ip), vehicle: saline 101 % of control | endpoint: mean survival time, dose: 27.5 mg/kg/injection, schedule: Q01DX012 (sc), vehicle: other 110 % of control | endpoint: mean survival time, dose: 30.0 mg/kg/injection, schedule: Q01DX009 (ip), vehicle: none 109 % of control | endpoint: mean survival time, dose: 30.0 mg/kg/injection, schedule: Q01DX009 (ip), vehicle: saline 101 % of control and 109 % of control | endpoint: mean survival time, dose: 30.0 mg/kg/injection, schedule: Q01DX Z (ip), vehicle: saline 97 % of control | endpoint: mean survival time, dose: 30.0 mg/kg/injection, schedule: Q## X Z (ip), vehicle: saline 98 % of control | endpoint: mean survival time, dose: 39.0 mg/kg/injection, schedule: Q01DX009 (ip), vehicle: saline 109 % of control | endpoint: mean survival time, dose: 39.0 mg/kg/injection, schedule: Q01DX Z (ip), vehicle: saline 96 % of control and 109 % of control | endpoint: mean survival time, dose: 40.0 mg/kg/injection, schedule: Q01DX010 (ip), vehicle: saline 100 % of control | endpoint: mean survival time, dose: 40.0 mg/kg/injection, schedule: Q01DX Z (ip), vehicle: methylcellulose (MC) 103 % of control | endpoint: mean survival time, dose: 45.0 mg/kg/injection, schedule: Q## X006 (ip), vehicle: saline 95 % of control | endpoint: mean survival time, dose: 50.0 mg/kg/injection, schedule: Q01DX Z (ip), vehicle: methylcellulose (MC) 94 % of control | endpoint: mean survival time, dose: 52.0 mg/kg/injection, schedule: Q01DX009 (ip), vehicle: saline 111 % of control | endpoint: mean survival time, dose: 64.0 mg/kg/injection, schedule: Q01DX Z (im), vehicle: carboxymethylcellulose (CMC) 96 % of control | endpoint: mean survival time, dose: 64.0 mg/kg/injection, schedule: Q01DX Z (oral), vehicle: carboxymethylcellulose (CMC) 94 % of control | endpoint: mean survival time, dose: 64.0 mg/kg/injection, schedule: Q01DX Z (sc), vehicle: carboxymethylcellulose (CMC) 105 % of control | endpoint: mean survival time, dose: 65.0 mg/kg/injection, schedule: Q01DX009 (ip), vehicle: saline 93 % of control | endpoint: mean survival time, dose: 67.0 mg/kg/injection, schedule: Q02DX010 (ip), vehicle: other 102 % of control | endpoint: mean survival time, dose: 67.1 mg/kg/injection, schedule: Q01DX005 (sc), vehicle: other 100 % of control | endpoint: mean survival time, dose: 68.0 mg/kg/injection, schedule: Q02DX010 (ip), vehicle: carboxymethylcellulose (CMC) 108 % of control | endpoint: mean survival time, dose: 68.0 mg/kg/injection, schedule: Q02DX010 (ip), vehicle: other 98 % of control | endpoint: mean survival time, dose: 80.0 mg/kg/injection, schedule: Q01DX005 (ip), vehicle: Klucel (hydroxypropylcellulose) (HPC) 97 % of control | endpoint: mean survival time, dose: 80.0 mg/kg/injection, schedule: Q01DX005 (ip), vehicle: acetone 100 % of control | endpoint: mean survival time, dose: 80.0 mg/kg/injection, schedule: Q01DX005 (ip), vehicle: other 100 % of control | endpoint: mean survival time, dose: 80.0 mg/kg/injection, schedule: Q01DX006 (ip), vehicle: saline 103 % of control | endpoint: mean survival time, dose: 80.0 mg/kg/injection, schedule: Q01DX009 (ip), vehicle: none 93 % of control | endpoint: mean survival time, dose: 80.0 mg/kg/injection, schedule: Q01DX009 (ip), vehicle: water 95 % of control | endpoint: mean survival time, dose: 80.0 mg/kg/injection, schedule: Q01DX009 (oral), vehicle: saline 103 % of control | endpoint: mean survival time, dose: 80.0 mg/kg/injection, schedule: Q01DX015 (ip), vehicle: saline 110 % of control | endpoint: mean survival time, dose: 80.0 mg/kg/injection, schedule: Q02DX005 (ip), vehicle: water 108 % of control | endpoint: mean survival time, dose: 90.0 mg/kg/injection, schedule: Q04DX004 (ip), vehicle: saline 98 % of control | endpoint: mean survival time, dose: 94.5 mg/kg/injection, schedule: Q02DX010 (ip), vehicle: carboxymethylcellulose (CMC) 109 % of control | endpoint: mean survival time, dose: 101.0 mg/kg/injection, schedule: Q02DX010 (ip), vehicle: carboxymethylcellulose (CMC) 95 % of control | endpoint: mean survival time, dose: 120.0 mg/kg/injection, schedule: Q01DX006 (ip), vehicle: saline 98 % of control | endpoint: mean survival time, dose: 120.0 mg/kg/injection, schedule: Q04DX003 (ip), vehicle: saline with Tween-80 93 % of control and 96 % of control and 102 % of control | endpoint: mean survival time, dose: 120.0 mg/kg/injection, schedule: Q## X004 (ip), vehicle: water 105 % of control | endpoint: mean survival time, dose: 128.0 mg/kg/injection, schedule: Q01DX005 (iv), vehicle: carboxymethylcellulose (CMC) 109 % of control | endpoint: mean survival time, dose: 164.0 mg/kg/injection, schedule: Q01DX002 (sc), vehicle: other 95 % of control | endpoint: mean survival time, dose: 177.6 mg/kg/injection, schedule: Q01DX001 (ip), vehicle: carboxymethylcellulose (CMC) 111 % of control | endpoint: mean survival time, dose: 180.0 mg/kg/injection, schedule: Q## X004 (ip), vehicle: water 107 % of control | endpoint: mean survival time, dose: 200.0 mg/kg/injection, schedule: Q02DX005 (ip), vehicle: saline 96 % of control | endpoint: mean survival time, dose: 200.0 mg/kg/injection, schedule: Q04DX002 (ip), vehicle: saline 110 % of control | endpoint: mean survival time, dose: 256.0 mg/kg/injection, schedule: Q01DX001 (sc), vehicle: other 101 % of control | endpoint: mean survival time, dose: 256.0 mg/kg/injection, schedule: Q01DX005 (iv), vehicle: carboxymethylcellulose (CMC) 103 % of control | endpoint: mean survival time, dose: 300.0 mg/kg/injection, schedule: Q01DX001 (ip), vehicle: Klucel (hydroxypropylcellulose) (HPC) 104 % of control | endpoint: mean survival time, dose: 320.0 mg/kg/injection, schedule: Q01DX009 (ip), vehicle: saline 94 % of control | endpoint: mean survival time, dose: 400.0 mg/kg/injection, schedule: Q04DX003 (ip), vehicle: saline 97 % of control | endpoint: mean survival time, dose: 400.0 mg/kg/injection, schedule: Q## X004 (ip), vehicle: alkali diluted with saline 109 % of control | endpoint: mean survival time, dose: 600.0 mg/kg/injection, schedule: Q01DX001 (ip), vehicle: carboxymethylcellulose (CMC) 106 % of control | endpoint: mean survival time, dose: 900.0 mg/kg/injection, schedule: Q01DX001 (ip), vehicle: water 101 % of control | endpoint: mean survival time, dose: 900.0 mg/kg/injection, schedule: Q## X004 (ip), vehicle: alkali diluted with saline 104 % of control | endpoint: median survival time, dose: 4.0 mg/kg/injection, schedule: Q01DX009 (ip), vehicle: saline 98 % of control and 100 % of control | endpoint: median survival time, dose: 8.0 mg/kg/injection, schedule: Q01DX009 (ip), vehicle: saline 98 % of control and 100 % of control | endpoint: median survival time, dose: 16.0 mg/kg/injection, schedule: Q01DX009 (ip), vehicle: saline 100 % of control and 102 % of control | endpoint: median survival time, dose: 23.0 mg/kg/injection, schedule: Q04DX003 (oral), vehicle: saline 106 % of control | endpoint: median survival time, dose: 65.0 mg/kg/injection, schedule: Q01DX005 (ip), vehicle: saline 98 % of control | endpoint: median survival time, dose: 65.0 mg/kg/injection, schedule: Q01DX009 (ip), vehicle: saline 106 % of control | endpoint: median survival time, dose: 75.0 mg/kg/injection, schedule: Q01DX001 (ip), vehicle: saline 109 % of control | endpoint: median survival time, dose: 300.0 mg/kg/injection, schedule: Q01DX001 (ip), vehicle: alkali diluted with saline 97 % of control | endpoint: median survival time, dose: 300.0 mg/kg/injection, schedule: Q04DX003 (oral), vehicle: saline 102 % of control | endpoint: median survival time, dose: 300.0 mg/kg/injection, schedule: Q04DX003 (sc), vehicle: saline 105 % of control | endpoint: median survival time, dose: 500.0 mg/kg/injection, schedule: Q04DX003 (oral), vehicle: saline 108 % of control | endpoint: median survival time, dose: 600.0 mg/kg/injection, schedule: Q01DX001 (ip), vehicle: alkali diluted with saline 101 % of control
